Data on two molecules can be found in ChEMBL document CHEMBL1124182, “Design, synthesis, and properties of (4S)-7-(4-amino-2-substituted-pyrrolidin-1-yl)quinolone-3-carboxylic acids” (J Med Chem, 1988).

≈ marks a conversion by molar mass, not a printed value.

In general, MIC refers to the smallest concentration in the dilution series that meets the test's criterion for growth inhibition. For orientation: ED50 means the dose that gives a 50% effect, or the effect in half of the subjects.

In one data set the test system is Acinetobacter. In words: In vitro Minimum inhibitory concentration against Acinetobacter CMX 669. It is filed as functional.
Settings: not given
Take `NC1CCN(c2cc3c(cc2F)c(=O)c(C(=O)O)cn3-c2ccc(F)cc2F)C1` (centres undefined): the MIC worked out at 0.1 µg/mL (≈ 0.248 µM).

The same data set, now with this note: Acinetobacter; read-out: MIC.
On to `CCC1C[C@H](N)CN1c1cc2c(cc1F)c(=O)c(C(=O)O)cn2-c1ccc(F)cc1F` (some centres undefined), for which the MIC was 0.2 µg/mL (≈ 0.464 µM).

In the case of `NC1CCN(c2cc3c(cc2F)c(=O)c(C(=O)O)cn3-c2ccc(F)cc2F)C1` (centres undefined), the minimum inhibitory concentration (MIC) turned out to be 0.1 µg/mL (≈ 0.248 µM).

A further data set concerns Staphylococcus epidermidis. Description: In vitro Minimum inhibitory concentration against Staphylococcus epidermidis 3519. It is filed as functional.
Settings: not given
`CCC1C[C@H](N)CN1c1cc2c(cc1F)c(=O)c(C(=O)O)cn2-c1ccc(F)cc1F` (some centres undefined) showed an MIC of 0.1 µg/mL (≈ 0.232 µM).

In turn, `NC1CCN(c2cc3c(cc2F)c(=O)c(C(=O)O)cn3-c2ccc(F)cc2F)C1` (centres undefined) came in with an MIC of 0.1 µg/mL (≈ 0.248 µM).

Test system in a further data set: not listed separately
In words: Blood level was evaluated by a disk agar diffusion assay at 3.0 hh when administered at a peroral dose of 100 mg/kg. Also noted: dose 100 mg/kg, route oral. It is filed as ADME, organism-based. To be noted: mouse, po, read-out: Blood level.
As for `NC1CCN(c2cc3c(cc2F)c(=O)c(C(=O)O)cn3-c2ccc(F)cc2F)C1` (centres undefined), the concentration at 3 h came to 900 ng/mL.

In a further data set the test system is Staphylococcus aureus. Description: In vitro Minimum inhibitory concentration against Staphylococcus aureus CMX 686B. Format: functional.
Settings: not given
`CCC1C[C@H](N)CN1c1cc2c(cc1F)c(=O)c(C(=O)O)cn2-c1ccc(F)cc1F` (some centres undefined) gave an MIC of 0.05 µg/mL (≈ 0.116 µM).

`NC1CCN(c2cc3c(cc2F)c(=O)c(C(=O)O)cn3-c2ccc(F)cc2F)C1` (centres undefined) came in with an MIC of 0.05 µg/mL (≈ 0.124 µM).

In the next data set the test system is Klebsiella pneumoniae. In words: In vitro Minimum inhibitory concentration against Klebsiella pneumoniae 8045. Format: functional.
Settings: not given
For `CCC1C[C@H](N)CN1c1cc2c(cc1F)c(=O)c(C(=O)O)cn2-c1ccc(F)cc1F` (some centres undefined), 0.05 µg/mL (≈ 0.116 µM) was the least that counted as inhibitory (MIC).

In the case of `NC1CCN(c2cc3c(cc2F)c(=O)c(C(=O)O)cn3-c2ccc(F)cc2F)C1` (centres undefined), the MIC turned out to be 0.05 µg/mL (≈ 0.124 µM).

In another data set the test system is Streptococcus agalactiae. Description: In vitro Minimum inhibitory concentration against Streptococcus agalactiae CMX 508. It is filed as functional.
Settings: not given
For the molecule `CCC1C[C@H](N)CN1c1cc2c(cc1F)c(=O)c(C(=O)O)cn2-c1ccc(F)cc1F` (some centres undefined), the MIC was 0.1 µg/mL (≈ 0.232 µM).

In turn, `NC1CCN(c2cc3c(cc2F)c(=O)c(C(=O)O)cn3-c2ccc(F)cc2F)C1` (centres undefined) returned an MIC of 0.2 µg/mL (≈ 0.496 µM).

The test system of a further data set is Streptococcus pyogenes. Description: In vitro Minimum inhibitory concentration against Streptococcus pyogenes 930. Format: functional.
Settings: not given
Molecule `CCC1C[C@H](N)CN1c1cc2c(cc1F)c(=O)c(C(=O)O)cn2-c1ccc(F)cc1F` (some centres undefined) returned an MIC of 0.1 µg/mL (≈ 0.232 µM).

Regarding `NC1CCN(c2cc3c(cc2F)c(=O)c(C(=O)O)cn3-c2ccc(F)cc2F)C1` (centres undefined), inhibition of growth (MIC) required 0.2 µg/mL (≈ 0.496 µM).

The next data set relates to Staphylococcus aureus. In words: In vitro Minimum inhibitory concentration against Staphylococcus aureus A5177. Format: functional.
Settings: not given
`CCC1C[C@H](N)CN1c1cc2c(cc1F)c(=O)c(C(=O)O)cn2-c1ccc(F)cc1F` (some centres undefined) returned an MIC of 0.1 µg/mL (≈ 0.232 µM).

Consider `NC1CCN(c2cc3c(cc2F)c(=O)c(C(=O)O)cn3-c2ccc(F)cc2F)C1` (centres undefined), for which the MIC was determined as 0.1 µg/mL (≈ 0.248 µM).

Another data set deals with Mus musculus. In words: In vivo efficacy against Staphylococcus aureus 10649, in mouse protection test when administered subcutaneously (sc). It is filed as functional.
Settings: not given
The molecule `CCC1C[C@H](N)CN1c1cc2c(cc1F)c(=O)c(C(=O)O)cn2-c1ccc(F)cc1F` (some centres undefined) had an ED50 of 0.8 mg/kg.

The next data set has as its system Escherichia coli. Description: In vitro Minimum inhibitory concentration against Escherichia coli Juhl. Format: functional.
Settings: not given
Consider `CCC1C[C@H](N)CN1c1cc2c(cc1F)c(=O)c(C(=O)O)cn2-c1ccc(F)cc1F` (some centres undefined), for which the MIC stood at 0.1 µg/mL (≈ 0.232 µM).

For the molecule `NC1CCN(c2cc3c(cc2F)c(=O)c(C(=O)O)cn3-c2ccc(F)cc2F)C1` (centres undefined), 0.05 µg/mL (≈ 0.124 µM) was the least that counted as inhibitory (MIC).

Another data set deals with Staphylococcus aureus. Description: In vitro Minimum inhibitory concentration against Staphylococcus aureus 45. Format: functional.
Settings: not given
Take `CCC1C[C@H](N)CN1c1cc2c(cc1F)c(=O)c(C(=O)O)cn2-c1ccc(F)cc1F` (some centres undefined): the MIC is 0.1 µg/mL (≈ 0.232 µM).

In turn, `NC1CCN(c2cc3c(cc2F)c(=O)c(C(=O)O)cn3-c2ccc(F)cc2F)C1` (centres undefined) returned an MIC of 0.1 µg/mL (≈ 0.248 µM).

For another data set, the system named is Pseudomonas aeruginosa. In words: In vitro Minimum inhibitory concentration against Pseudomonas aeruginosa K799/WT. Format: functional.
Settings: not given
The molecule `CCC1C[C@H](N)CN1c1cc2c(cc1F)c(=O)c(C(=O)O)cn2-c1ccc(F)cc1F` (some centres undefined) showed an MIC of 0.78 µg/mL (≈ 1.81 µM).

The subject of a further data set is Acinetobacter. Description: In vitro Minimum inhibitory concentration against Acinetobacter CMX 669.
Settings: not given
As to `NC1CCN(c2cc3c(cc2F)c(=O)c(C(=O)O)cn3-c2ccc(F)cc2F)C1` (centres undefined), the MIC was 0.1 µg/mL (≈ 0.248 µM).

Another data set relates to Pseudomonas aeruginosa. In words: In vitro Minimum inhibitory concentration against Pseudomonas aeruginosa 5007. Format: functional.
Settings: not given
In turn, `CCC1C[C@H](N)CN1c1cc2c(cc1F)c(=O)c(C(=O)O)cn2-c1ccc(F)cc1F` (some centres undefined) displayed an MIC of 6.2 µg/mL (≈ 14.4 µM).

In turn, `NC1CCN(c2cc3c(cc2F)c(=O)c(C(=O)O)cn3-c2ccc(F)cc2F)C1` (centres undefined) showed an MIC of 1.56 µg/mL (≈ 3.87 µM).

In a further data set the test system is Streptococcus equinus. In words: In vitro Minimum inhibitory concentration against Streptococcus bovis A5169. Format: functional.
Settings: not given
Turning to `CCC1C[C@H](N)CN1c1cc2c(cc1F)c(=O)c(C(=O)O)cn2-c1ccc(F)cc1F` (some centres undefined), 0.2 µg/mL (≈ 0.464 µM) was the least that counted as inhibitory (MIC).

In the case of `NC1CCN(c2cc3c(cc2F)c(=O)c(C(=O)O)cn3-c2ccc(F)cc2F)C1` (centres undefined), the MIC worked out at 0.78 µg/mL (≈ 1.93 µM).

The next data set deals with Mus musculus. Description: In vivo efficacy against Staphylococcus aureus 10649, in mouse protection test when administered perorally (po). It is filed as functional.
Settings: not given
Molecule `CCC1C[C@H](N)CN1c1cc2c(cc1F)c(=O)c(C(=O)O)cn2-c1ccc(F)cc1F` (some centres undefined) displayed an ED50 of 2.4 mg/kg.

The next data set deals with Enterococcus faecium. In words: In vitro Minimum inhibitory concentration against Streptococcus faecium ATCC 8043. Format: functional.
Settings: not given
`CCC1C[C@H](N)CN1c1cc2c(cc1F)c(=O)c(C(=O)O)cn2-c1ccc(F)cc1F` (some centres undefined) showed an MIC of 0.2 µg/mL (≈ 0.464 µM).

`NC1CCN(c2cc3c(cc2F)c(=O)c(C(=O)O)cn3-c2ccc(F)cc2F)C1` (centres undefined) registered an MIC of 0.2 µg/mL (≈ 0.496 µM).

Another data set concerns Mus musculus. In words: In vivo efficacy against Escherichia coli Juhl, in mouse protection tests. when administered perorally (po). Format: functional.
Settings: not given
The molecule `CCC1C[C@H](N)CN1c1cc2c(cc1F)c(=O)c(C(=O)O)cn2-c1ccc(F)cc1F` (some centres undefined) came in with an ED50 of 9.6 mg/kg.

In a further data set the test system is Mus musculus. Description: In vivo efficacy against Escherichia coli Juhl, in mouse protection test when administered subcutaneously (sc). Format: functional.
Settings: not given
As for `CCC1C[C@H](N)CN1c1cc2c(cc1F)c(=O)c(C(=O)O)cn2-c1ccc(F)cc1F` (some centres undefined), it took a dose of 2.4 mg/kg to reach the 50% effect level (ED50).

For a further data set, the system named is Staphylococcus aureus. In words: In vitro Minimum inhibitory concentration against Staphylococcus aureus ATCC 6538P. It is filed as functional.
Settings: not given
`CCC1C[C@H](N)CN1c1cc2c(cc1F)c(=O)c(C(=O)O)cn2-c1ccc(F)cc1F` (some centres undefined) registered an MIC of 0.05 µg/mL (≈ 0.116 µM).

As for `NC1CCN(c2cc3c(cc2F)c(=O)c(C(=O)O)cn3-c2ccc(F)cc2F)C1` (centres undefined), the lowest concentration to inhibit growth (MIC) was 0.05 µg/mL (≈ 0.124 µM).
